From patent publication US9809623B2, “α4β7 peptide monomer and dimer antagonists” (Protagonist Therapeutics, Inc., priority 2014, dated 2017)
Numbered stars: 1 amine (or outer) side, 2 acyl side, 3 side chain; on linkers, the order of the positions; unused ones are H or OH. Bridge positions count the residues as written; N and C are the ends. Square brackets hold non-standard residues; d marks the D form. Peptide text beside a SMILES is read from it. I, II: the chains in the order shown. X1 = O=C(CCOCCOCCOCCOCCOCCOCCOCCOCCOCCOCCOCCOCCOCCOCCOCCOCCOCCOCCOCCOCCOCCOCCOCCOCCOCCOCCC(=O)[*:2])[*:1]; NMeR = CN[C@@H](CCCNC(=N)N)C(=O)O

Assays:
[1] = tested on: cell types in human whole blood; assay: FACS binding specificity in human whole blood; assay type: cell-based; conditions: 1 nM, 1 mM MnCl2
Procedure: To further evaluate the selectivity of Peptide X in human blood, the fluorescent dye Alexa 647 was conjugated to Peptide X at the same position used for attaching biotin. […] Heparinized human whole blood was supplemented with 1 mM MnCl2, and stained with the Peptide X-Alexa 647 conjugate or biotinylated vedolizumab for 1 hour at room temperature. The samples were fixed (red blood cells lysed) and washed. The vedolizumab samples were stained separately with streptavidin Alexa 647 for stain for 30 minutes at room temperature. FACS analysis was used to assess binding of the peptide or vedolizumab to a broad panel of cell types including NK cells, basophils, monocytes, eosinophils, neutrophils, CD4 naïve T cells, CD4 memory T cells, CD8 naïve T cells, CD8 memory T cells, and B cells. […] The binding specificity for vedolizmab shown in Table 7 is also very similar to that reported in the literature (Soler et al, JPET 330:864-875, 2009).

αEβ7 integrin = assay: FACS binding in cynomolgus monkey blood (α4β7 / αEβ7 expressing cells); assay type: cell-based; conditions: cyno blood, 1 nM
Procedure: Blood from cynomolgus monkeys was also analyzed by FACS.
Binding to αEβ7 integrin in cyno blood was also tested. Cyno blood was incubated with 1 nM Peptide X-Alexa 647, and cells expressing α4β7 or αEβ7 were analyzed by FACS. […] Binding to α4β7 was specific, because it could be blocked in the presence of a large excess (1 uM) of unlabeled Peptide X. Therefore under these conditions, it was concluded that Peptide X binds α4β7, not αEβ7.

[2] = Simulated Intestinal Fluid (SIF) Stability Assay; assay type: in vitro ADME, porcine; conditions: pig, simulated intestinal fluid (SIF) with 1% porcine pancreatin, pH 6.5, Table 4-C, t1/2; > means assay stopped at that time; read-out: SIF (porcine) Min
Method in brief: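 Intestinal stability: percent peptide remaining over time, by LC-MS/MS peak-area ratio to internal standard, fitted to first-order decay for half-life. Conditions: 22 μM peptide, 1% pancreatin in pH 6.5 blank FASSIF, 37 °C.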

[3] = Simulated Gastric Fluid (SGF) Assay; assay type: in vitro ADME; conditions: pig, simulated gastric fluid (SGF) with porcine pepsin, pH 2; Table 4-C, t1/2
Procedure: SGF was prepared by adding 20 mg NaCl, 32 mg porcine pepsin (MP Biochemicals, catalog 02102599), and 70 μl HCl to 10 ml water (final pH=2). Aliquots of SGF (0.5 ml each) were pre-warmed at 37° C. For each peptide tested, to start the reaction, 1 μl of peptide stock solution (10 mM in DMSO) was added to 0.5 ml SGF and thoroughly mixed such that the final peptide concentration was 20 μM. The reactions were incubated at 37° C. with gentle shaking. At each time point (0, 15, 30, 60 min), 50 μl aliquots were removed and added to 200 ul acetonitrile containing 0.1% formic acid to quench the reaction. Samples were stored at 4° C. until the end of the experiment and centrifuged at 10,000 rpm for 5 minutes. Aliquots of the supernatant were removed, diluted 1:1 into distilled water containing internal standard, and analyzed by LCMS/MS. Percent remaining at each timepoint was calculated based on the peak area response ratio of test compound to internal standard. Time 0 was set to 100%, and all later timepoints were calculated relative to time 0. Half-lives were calculated by fitting to a first-order exponential decay equation using GraphPad.

Plasma Stability Assay = assay type: in vitro ADME; conditions: rat, Table 4-C, t1/2
Procedure: 0.5 mL of rat plasma (one tube per peptide, volume depends on how many time points are to be collected, 50 μL per time point) was added to each well of a 96-well polypropylene plate, and the tubes were incubated in a heated water bath, preset to 37° C. with gentle shaking. 1 μL of 10 mM peptide stock solution was added to each tub, and then 200 μL of Acetonitrile w/0.1% Formic Acid was added to each tube (1:4). Samples were collected at the following time points: 0, 10, 30, 45, 60, 120, 180 mins. When all time points were collected, the plate was centrifuged at 5000 rpm for 5 mins. LCM analysis was performed by pipetting 100 μL of each sample to appropriate well of a 96-well deep plate. 100 μL of an internal standard peptide (1 ug/mL) was added in Mobile Phase A to each well. The plate was vortexed and injected

α4β7 integrin = α4β7 integrin (Homo sapiens, UniProt P13612+P26010, DEL724-798); assay: Surface plasmon resonance (SPR), binding of soluble α4β7 integrin to immobilized biotin-labeled ligand
α4β7 integrin, sequence (P13612 34-977 limits assumed, stated change not applied): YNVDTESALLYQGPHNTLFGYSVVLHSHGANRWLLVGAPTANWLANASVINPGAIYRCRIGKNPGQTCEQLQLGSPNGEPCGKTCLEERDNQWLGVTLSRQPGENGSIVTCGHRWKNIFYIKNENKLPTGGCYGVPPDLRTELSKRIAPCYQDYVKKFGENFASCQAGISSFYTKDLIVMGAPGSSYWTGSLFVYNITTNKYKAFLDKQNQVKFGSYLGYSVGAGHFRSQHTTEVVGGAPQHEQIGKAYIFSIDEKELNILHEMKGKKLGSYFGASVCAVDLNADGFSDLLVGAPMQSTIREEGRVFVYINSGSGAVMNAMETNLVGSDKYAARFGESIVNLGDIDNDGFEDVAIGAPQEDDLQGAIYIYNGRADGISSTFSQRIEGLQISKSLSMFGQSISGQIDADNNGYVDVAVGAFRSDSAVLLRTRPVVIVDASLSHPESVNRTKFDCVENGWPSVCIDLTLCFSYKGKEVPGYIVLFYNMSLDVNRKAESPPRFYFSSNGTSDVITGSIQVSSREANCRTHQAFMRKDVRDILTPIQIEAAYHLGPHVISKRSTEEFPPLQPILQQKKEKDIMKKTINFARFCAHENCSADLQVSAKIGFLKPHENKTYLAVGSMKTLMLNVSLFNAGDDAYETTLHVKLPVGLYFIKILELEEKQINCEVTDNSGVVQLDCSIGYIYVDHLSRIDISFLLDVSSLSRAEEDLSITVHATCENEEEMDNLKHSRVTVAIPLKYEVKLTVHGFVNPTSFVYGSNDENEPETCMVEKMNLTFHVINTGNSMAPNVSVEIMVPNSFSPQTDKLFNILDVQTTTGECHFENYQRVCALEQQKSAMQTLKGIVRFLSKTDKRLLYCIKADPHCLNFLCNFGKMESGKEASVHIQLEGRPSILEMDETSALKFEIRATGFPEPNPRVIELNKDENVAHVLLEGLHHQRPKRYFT
α4β7 integrin, sequence (P26010 20-723 limits assumed, stated change not applied): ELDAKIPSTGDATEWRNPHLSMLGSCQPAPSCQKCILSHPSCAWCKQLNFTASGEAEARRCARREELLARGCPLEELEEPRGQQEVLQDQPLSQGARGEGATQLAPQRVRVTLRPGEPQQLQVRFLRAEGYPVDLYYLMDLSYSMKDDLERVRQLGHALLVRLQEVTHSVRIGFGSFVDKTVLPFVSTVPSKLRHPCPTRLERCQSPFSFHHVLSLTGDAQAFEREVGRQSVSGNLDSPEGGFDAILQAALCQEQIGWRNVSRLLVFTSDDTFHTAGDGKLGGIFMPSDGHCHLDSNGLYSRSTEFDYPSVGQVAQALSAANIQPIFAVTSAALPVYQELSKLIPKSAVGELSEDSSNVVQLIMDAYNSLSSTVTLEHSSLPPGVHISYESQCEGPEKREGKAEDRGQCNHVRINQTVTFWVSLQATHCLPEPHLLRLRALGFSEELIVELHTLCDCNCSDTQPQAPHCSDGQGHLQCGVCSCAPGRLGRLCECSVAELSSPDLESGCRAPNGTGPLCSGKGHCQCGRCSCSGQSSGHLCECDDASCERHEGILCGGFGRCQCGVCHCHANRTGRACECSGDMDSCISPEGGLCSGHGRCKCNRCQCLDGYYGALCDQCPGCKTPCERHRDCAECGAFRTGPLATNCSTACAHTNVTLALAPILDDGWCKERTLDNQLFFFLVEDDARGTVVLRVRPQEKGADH
Excerpt: Surface plasmon resonance (SPR) was used to further evaluate the binding properties of Peptide X. An analog of Peptide X (Peptide X-biotin), which contains a biotin group attached to Peptide X via a PEG linker, was synthesized. Another peptide dimer having the following structure, which is closely related to Peptide X, was also synthesized and biotin-labeled:
• (Peptide Z). Vedolizumab was also chemically biotinylated. Peptide X-biotin, Peptide Z-biotin, or biotin-labeled vedolizumab antibody was immobilized to a streptavidin coated SPR chip, and the binding of soluble α4β7 integrin was measured. […] This half-life is quite long, and may be caused by a tight association between the peptide and the bound Mn^2+ metal ion on the integrin. […] In addition, the KD for Peptide X-biotin was substantially lower than that for Peptide Z-biotin.

CC(=O)N[C@@H]1C(=O)N(C)[C@@H](CCCNC(=N)N)C(=O)N[C@@H](CO)C(=O)N[C@@H](CC(=O)O)C(=O)N[C@@H]([C@@H](C)O)C(=O)N[C@@H](CC(C)C)C(=O)N[C@H](C(=O)N[C@@H](Cc2ccc(C(C)(C)C)cc2)C(=O)N[C@@H](CCC(=O)O)CC(=O)N[C@H](CCCCNC(=O)CN(CC(=O)NCCCC[C@@H](NC(=O)C[C@H](CCC(=O)O)NC(=O)[C@H](Cc2ccc(C(C)(C)C)cc2)NC(=O)[C@H]2NC(=O)[C@H](CC(C)C)NC(=O)[C@H]([C@@H](C)O)NC(=O)[C@H](CC(=O)O)NC(=O)[C@H](CO)NC(=O)[C@H](CCCNC(=N)N)N(C)C(=O)[C@@H](NC(C)=O)C(C)(C)SSC2(C)C)C(N)=O)C(=O)CCNC(=O)CCCCCC2(C)C(=CC=CC=CC3=[N+](CCCS(=O)(=O)[O-])c4ccc(S(=O)(=O)O)cc4C3(C)C)N(CCCS(=O)(=O)O)c3ccc(S(=O)(=O)O)cc32)C(N)=O)C(C)(C)SSC1(C)C (single isomer, unassigned) [Peptide X-Alexa 647]
Percent positive staining, Basophils [1]: 87%
Percent positive staining, CD4 memory T cells [1]: 20%
Percent positive staining, CD4 naïve T cells [1]: 51%
Percent positive staining, CD8 memory T cells [1]: 36%
Percent positive staining, CD8 naïve T cells [1]: 52%
Percent positive staining, CD19+ B cells [1]: 78%
Percent positive staining, Eosinophils [1]: 92%
Percent positive staining, Monocytes [1]: 7%
Percent positive staining, NK cells CD16+ 56+ [1]: 45%
Percent positive staining, Neutrophils [1]: 0.35%
Binding to α4β7+ and αEβ7+ CD4 memory T cells (αEβ7 integrin): bound to α4β7^+, but not αEβ7^+ cells

CC(=O)N[C@H]1CSSC(C)(C)[C@@H](C(=O)N[C@H](CCCCNC(=O)CN(CC(=O)NCCCC[C@@H](NC(=O)[C@H]2NC(=O)[C@H](CC(C)C)NC(=O)[C@H]([C@@H](C)O)NC(=O)[C@H](CC(=O)O)NC(=O)[C@H](CO)NC(=O)[C@H](CCCNC(=N)N)N(C)C(=O)[C@@H](NC(C)=O)CSSC2(C)C)C(N)=O)C(=O)CCN)C(N)=O)NC(=O)[C@H](CC(C)C)NC(=O)[C@H]([C@@H](C)O)NC(=O)[C@H](CC(=O)O)NC(=O)[C@H](CO)NC(=O)[C@H](CCCNC(=N)N)N(C)C1=O [compound 203, (Ac-C-N-Me-R-S-D-T-L-Pen-k-NH2)2-IDA]
half-life at 22 μM [2]: > 4.88 h
half-life at 20 μM [3]: > 6 h
half-life at 20 μM (Plasma Stability Assay): > 6 h

CC(=O)N[C@H]1CSSC[C@@H](C(=O)N[C@@H](CCCCNC(=O)CCOCCOCCOCCOCCOCCOCCOCCOCCOCCOCCOCCOCCOCCOCCOCCOCCOCCOCCOCCOCCOCCOCCOCCOCCOCCOCCC(=O)NCCCC[C@H](NC(=O)[C@@H]2CSSC[C@H](NC(C)=O)C(=O)N(C)[C@@H](CCCNC(=N)N)C(=O)N[C@@H](CO)C(=O)N[C@@H](CC(=O)O)C(=O)N[C@@H]([C@@H](C)O)C(=O)N[C@@H](CC(C)C)C(=O)N2)C(=O)O)C(=O)O)NC(=O)[C@H](CC(C)C)NC(=O)[C@H]([C@@H](C)O)NC(=O)[C@H](CC(=O)O)NC(=O)[C@H](CO)NC(=O)[C@H](CCCNC(=N)N)N(C)C1=O [compound 200, (Ac-C-N-Me-R-S-D-T-L-C-K-OH)2-PEG25] (I: Ac-C[NMeR]SDTLCK-OH / II: Ac-C[NMeR]SDTLCK-OH; disulfide I:1-I:7, II:1-II:7 (inferred); linker I:8-II:8 via X1 (inferred))
half-life at 22 μM [2]: 0.133 h
half-life at 20 μM [3]: > 6 h
half-life at 20 μM (Plasma Stability Assay): 1.47 h

CC(=O)N[C@@H]1C(=O)N(C)[C@@H](CCCNC(=N)N)C(=O)N[C@@H](CO)C(=O)N[C@@H](CC(=O)O)C(=O)N[C@@H]([C@@H](C)O)C(=O)N[C@@H](CC(C)C)C(=O)N[C@H](C(=O)N[C@@H](Cc2ccc(C(C)(C)C)cc2)C(=O)N[C@@H](CCC(=O)O)CC(=O)N[C@H](CCCCNC(=O)CN(CC(=O)NCCCC[C@@H](NC(=O)C[C@H](CCC(=O)O)NC(=O)[C@H](Cc2ccc(C(C)(C)C)cc2)NC(=O)[C@H]2NC(=O)[C@H](CC(C)C)NC(=O)[C@H]([C@@H](C)O)NC(=O)[C@H](CC(=O)O)NC(=O)[C@H](CO)NC(=O)[C@H](CCCNC(=N)N)N(C)C(=O)[C@@H](NC(C)=O)C(C)(C)SSC2(C)C)C(N)=O)C(=O)CCNC(=O)CCOCCOCCOCCOCCNC(=O)CCCC[C@@H]2SC[C@@H]3NC(=O)N[C@@H]32)C(N)=O)C(C)(C)SSC1(C)C [Peptide X-biotin]
KD lower than that for biotin-labeled vedolizumab (α4β7 integrin): 3.8 fold
kd (α4β7 integrin): 0.0000173 s⁻¹
kon (α4β7 integrin; read-out: ka): 1120 M⁻¹ s⁻¹
